The source of these data is PMC8955370, “Triterpenes and Phenolic Compounds from Euphorbia deightonii with Antiviral Activity against Herpes Simplex Virus Type-2” (Plants, 2022).

Like-named read-outs stand apart in the source and are kept apart here.

Data set [1] in a line: MTT cell viability assay for cytotoxic concentration 50% (CC50). It counts as cell-based. Conditions: African green monkey. As for the experimental part: For the determination of cytotoxic concentration 50% (CC50), a cell viability test was performed as an MTT assay using the Vero cell line. Cells were seeded at a density of 4 × 10^4 cells/well. After an overnight period, fresh medium was complemented with serial 2-fold dilutions of all compounds 1–8. The cells were incubated at 37 °C for 24 h. Later, 20 μL of thiazolyl blue tetrazolium bromide (MTT; Sigma-Aldrich, St. Louis, MO, USA) was added to each well. After an additional incubation at 37 °C for 4 h, sodium dodecyl sulphate (Sigma-Aldrich, St. Louis, MO, USA) solution (10% in 0.01 M HCI) was added and incubated overnight. CC50 was then determined by measuring the OD at 550 nm (ref. 630 nm) with the EZ READ 400 ELISA reader (Biochrom, Cambridge, UK). The assay was replicated four times for each concentration.

For the next data set, the system named is rat epithelioid. More on the design: method as in PMID 26274958. Conditions: rat epithelioid cells; cited from earlier work.
For data set [2], the system named is human normal liver (L–O2). More on the design: method as in PMID 23109850. Conditions: L–O2 cells; cited from earlier work.
The test system of data set [3] is gastric epithelial cell lines (GES–2). More on the design: method as in PMID 23109850. The settings on record: GES–2 cells; cited from earlier work.
The subject of data set [4] is HSV-2. The experiment in a line: Anti-HSV-2 qRT-PCR assay on infected Vero cells. Conditions: for Anti-HSV-2 Activity IC50: Vero cells infected with 0.01 MOI HSV-2, 24 h, qRT-PCR; for IC50: Human alphaherpesvirus 2, Vero; for Selectivity Index: SI = CC50/IC50.
Data set [5] has as its system influenza A virus (A/PR/8/34, H1N1). More on the design: method as in PMID 28081470. The settings on record: not effective; cited from earlier work.
The subject of data set [6] is porcine circovirus type 2 (PCV2). More on the design: method as in doi:10.1007/s12257-014-0520-8. The settings on record: at the concentration of 0.01563 mg/mL; cited from earlier work.
A further data set concerns hepatitis B virus (HBV). More on the design: method as in PMID 31557836. Conditions: HepG2.2.15 model transfected with HBV; cited from earlier work.
A further data set relates to Bacillus subtilis. More on the design: method as in doi:10.1016/S0031-9422(00)81759-8. The settings on record: cited from earlier work.
A further data set relates to Klebsiella pneumoniae. More on the design: method as in doi:10.1016/S0031-9422(00)81759-8. Conditions: cited from earlier work.
For a further data set, the system named is Trychophyton rubrum. More on the design: method as in doi:10.1016/S0031-9422(00)81759-8. The settings on record: cited from earlier work.
Data set [7] has as its system six terrestrial pathogenic bacteria. More on the design: method as in PMID 24914904. The settings on record: cited from earlier work.
In data set [8] the test system is human HT-1080 fibrosarcoma. More on the design: method as in PMID 9677271. Conditions: cited from earlier work.
Data set [9] relates to murine colon 26-L5 carcinoma cells. More on the design: method as in PMID 9677271. The settings on record: cited from earlier work.
Data set [10] has as its system acyclovir (ACV)-resistant strains of HSV-1. More on the design: method as in PMID 32545813. The settings on record: ACV-resistant HSV-1; cited from earlier work.
In data set [11] the test system is acyclovir (ACV)-resistant strains of HSV-2. The settings on record: ACV-resistant HSV-2; cited from earlier work.
A further data set has as its system HSV-1. More on the design: method as in PMID 14526920. The settings on record: cited from earlier work.
Data set [12] concerns HSV-2. More on the design: method as in PMID 14526920. Conditions: cited from earlier work.
The subject of data set [13] is HSV-2. The settings on record: by reducing HSV-2 infectivity; cited from earlier work.
In a further data set the test system is HSV. More on the design: method as in PMID 14998984. The settings on record: cited from earlier work.
Where [14] appears, read: Vero cells, MTT assay, 24 h, read-out: CC50.
The mark [15] stands for this setting: 24 h, read-out: Anti-HSV-2 Activity IC50.

As to `CC(C)=CCC[C@@H](C)[C@@H]1CC[C@]2(C)C3=C(CC[C@@]12C)[C@@]1(C)CC[C@H](O)C(C)(C)[C@@H]1CC3=O` [Compound 2, kansenone], the CC50 at 24 h in data set [1] (setting [14]) was 52.1 ± 2.21 µM. The cytotoxicity entry (in the data set with rat epithelioid; in data set [2]; in data set [3]) was “strong cytotoxicity” each time. Further, the “Anti-HSV-2 Activity IC50” value with HSV-2 [4] was “inactive”.
Compound `COc1cc2ccc(=O)oc2cc1OC` [Compound 7, 6,7-dimethoxycoumarin] gave a CC50 at 24 h in [1] of 0.35 ± 0.016 µM. Besides, in [5], the “IC50 against influenza A virus” value was greater than 15 µg/mL. For the same compound, the “effect on PCV2 replication” value in data set [6] was “replication-inducing activity”. Also, the “anti-hepatitis B virus activity” value in the data set on hepatitis B virus (HBV) is “efficiently inhibits viral replication”. Also, the results for the IC50 in the data set on HSV-2 [4] (setting [15]) and in the data set on HSV-2 [4] (read-out: IC50 (anti-HSV-2)) were 0.032 ± 0.0021 µM and 0.032 µM, respectively. In the data set with HSV-2 [4], the “Selectivity Index” value is recorded as 10.923.
For the compound `COc1cc(C(OC)C(COC(C)=O)Oc2ccc(/C=C/COC(C)=O)cc2OC)ccc1O` (centres unmarked) [Compound 6, marylaurencinol D], the midpoint of cytotoxicity in data set [1], the CC50 at 24 h, lay at 71.6 ± 5.83 µM. The antimicrobial activity entry in the data set on Bacillus subtilis was “weak potency”; in the data set on Klebsiella pneumoniae, “no effect”; in the data set with Trychophyton rubrum, “no effect”. For the same compound, the “Anti-HSV-2 Activity IC50” value in the data set with HSV-2 [4] was “inactive”.
As for `C=C(CC[C@H](C)[C@@H]1CC[C@@]2(C)C3=C(CC[C@]12C)[C@@]1(C)CC[C@H](O)C(C)(C)[C@@H]1CC3=O)C(C)C` [Compound 3, euphorbol-7-one], the CC50 at 24 h in data set [1] (setting [14]) turned out to be 7.84 ± 0.96 µM. Further, the antibacterial activity result in data set [7] is on record as “ineffective”. In addition, the IC50 in the data set with HSV-2 [4] (setting [15]) came to 2.42 ± 0.06 µM. Further, in the data set on HSV-2 [4], the “Selectivity Index” value amounted to 3.23.
In the case of `COc1cc([C@H]2Oc3c(OC)cc(/C=C/COC(C)=O)cc3[C@@H]2COC(C)=O)ccc1O` [Compound 5, dehydrodiconiferyl-diacetate], in [1], the midpoint of cytotoxicity, the CC50 at 24 h, lay at 82.5 ± 8.94 µM. For the same compound, the cytotoxic activity result in [8] and in data set [9] was “moderate cytotoxic activity” in each case. The “Anti-HSV-2 Activity IC50” value with HSV-2 [4] is “inactive”.
In data set [1], `COc1cc2c(=O)oc3c(OC)c(O)cc4c(=O)oc(c1OC)c2c34` [Compound 8, 3,4,3′-tri-O-methylellagic acid] displayed a CC50 at 24 h of 25.7 ± 1.84 µM. For the same compound, the “Anti-HSV-2 Activity IC50” value with HSV-2 [4] was “inactive”.
As for `C=C(CC[C@@H](C)[C@H]1CC[C@@]2(C)C3=C(C(=O)C[C@]12C)[C@@]1(C)CC[C@H](O)C(C)(C)[C@@H]1C[C@@H]3O)C(C)C` [Compound 1, 3β,7β-dihydroxy-24-methylenelanosta-8-ene-11-one], in data set [1], the CC50 at 24 h was 35.5 ± 1.62 µM. Further, the IC50 in the data set on HSV-2 [4] (setting [15]) is 7.05 ± 0.25 µM. Besides, in the data set on HSV-2 [4], the “Selectivity Index” value came out at 5.03.
With grandinin, the antiviral activity entry was “activity against acyclovir (ACV)-resistant strains of HSV-1 and HSV-2 was proved” in data set [10]; “activity against acyclovir (ACV)-resistant strains of HSV-1 and HSV-2 was proved” in data set [11].
Regarding `C=C(C)[C@@H]1CC[C@]2(C)CC[C@]3(C)[C@H](CC[C@@H]4[C@@]5(C)CCC(=O)C(C)(C)[C@@H]5CC[C@]43C)[C@@H]12` [lupenone], the “viral plaque inhibitory effect” value in the data set with HSV-1 and with HSV-2 [12] was “strong viral plaque inhibitory effect” throughout.
As for `O=C(OC1C(O)C(O)OC2COC(=O)c3cc(O)c(O)c(O)c3-c3c(cc(O)c(O)c3O)C(=O)OC21)c1cc(O)c(O)c(O)c1` [3-O-galloyl-4,6-(S)-hexahydroxydiphenoyl-D-glucose], the HSV-2 multiplication entry in the data set with HSV-2 [13] is “inhibit HSV-2 multiplication”.
In the case of `O=C1OC[C@H]2OC(=O)c3cc(O)c(O)c(O)c3-c3c(O)c(O)c(O)c4c3C(=O)O[C@H]([C@H]3OC(=O)c5c-4c(O)c(O)c(O)c5[C@H]3O)[C@@H]2OC(=O)c2cc(O)c(O)c(O)c2-c2c1cc(O)c(O)c2O` [castalagin], the antiviral activity result is “activity against acyclovir (ACV)-resistant strains of HSV-1 and HSV-2 was proved” in [10]; “activity against acyclovir (ACV)-resistant strains of HSV-1 and HSV-2 was proved” in data set [11].
Take `O=C(OC1OC2COC(=O)c3cc(O)c(O)c(O)c3-c3c(cc(O)c(O)c3O)C(=O)OC3C2OC(=O)C24CC5(O)OC6(OCC(O)C6O)C2OC2(O)C4c4c(cc(O)c(O)c4OC52O)C(=O)OC13)c1cc(O)c(O)c(O)c1` (centres unmarked) [putranjivain A]: in the data set on HSV, the “viral attachment and cell penetration” value is “inhibition of viral attachment and cell penetration”; the viral infectivity result was “significantly reduce viral infectivity”.
As to `O=C1OCC2OC(=O)c3cc(O)c(O)c(O)c3-c3c(O)c(O)c(O)c4c3C(=O)OC(C2OC(=O)c2cc(O)c(O)c(O)c2-c2c1cc(O)c(O)c2O)C1OC(=O)c2c-4c(O)c(O)c(O)c2C1O` (centres unmarked) [vescalagin], the antiviral activity entry is “activity against acyclovir (ACV)-resistant strains of HSV-1 and HSV-2 was proved” in data set [10]; “activity against acyclovir (ACV)-resistant strains of HSV-1 and HSV-2 was proved” in [11].
In [1], `C=CC(OC)c1cc(OC)c2c(c1)[C@@H](COC(C)=O)[C@H](c1ccc(O)c(OC)c1)O2` (relative stereo) [Compound 4, trans-(2-(4-hydroxy-3-methoxyphenyl)-7-methoxy-5-(1-methoxyallyl)-2,3-dihydrobenzofuran-3-yl)methyl acetate] came in with a CC50 at 24 h of 39.8 ± 4.73 µM. For the same compound, in the data set on HSV-2 [4] (setting [15]), the IC50 was 11.7 ± 0.79 µM. The “Selectivity Index” value with HSV-2 [4] worked out at 3.389.
Turning to `Nc1nc2c(ncn2COCCO)c(=O)[nH]1` [Acyclovir, reference compound], half-maximal cytotoxicity in [1] (CC50 at 24 h) was put at 100 ± 6.15 µM. Besides, in the data set with HSV-2 [4] (setting [15]), the IC50 amounted to 0.77 ± 0.032 µM. For the same compound, the “Selectivity Index” value in the data set with HSV-2 [4] was determined as 129.87.
